Tests used:
[1] = target: T1, Protein kinase C iota type (Homo sapiens) (UniProt P41743); experiment: Residual activity of PKCiota at 1 uM by microplate scintillation counting
T1 sequence (whole entry): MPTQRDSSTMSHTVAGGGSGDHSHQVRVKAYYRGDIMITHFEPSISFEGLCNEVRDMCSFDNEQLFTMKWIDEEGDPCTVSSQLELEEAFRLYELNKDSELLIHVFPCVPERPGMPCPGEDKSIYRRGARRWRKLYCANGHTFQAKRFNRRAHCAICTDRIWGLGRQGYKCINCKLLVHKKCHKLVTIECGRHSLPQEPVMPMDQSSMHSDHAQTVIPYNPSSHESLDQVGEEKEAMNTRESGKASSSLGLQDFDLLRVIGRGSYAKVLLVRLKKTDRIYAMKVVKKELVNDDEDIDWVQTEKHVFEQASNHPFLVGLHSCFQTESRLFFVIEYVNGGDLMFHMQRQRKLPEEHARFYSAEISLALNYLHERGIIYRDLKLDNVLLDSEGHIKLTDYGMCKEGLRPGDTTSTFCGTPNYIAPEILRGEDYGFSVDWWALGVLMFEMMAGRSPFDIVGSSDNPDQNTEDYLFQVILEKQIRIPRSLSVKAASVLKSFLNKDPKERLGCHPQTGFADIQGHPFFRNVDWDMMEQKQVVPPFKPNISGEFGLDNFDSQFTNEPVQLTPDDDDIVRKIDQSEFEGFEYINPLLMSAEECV

[2] = target: Tyrosine-protein kinase Yes (Homo sapiens) (UniProt P07947); experiment: Residual activity of YES at 0.1 uM by microplate scintillation counting
Sequence of Tyrosine-protein kinase Yes (Homo sapiens) (P07947 2-543 limits assumed): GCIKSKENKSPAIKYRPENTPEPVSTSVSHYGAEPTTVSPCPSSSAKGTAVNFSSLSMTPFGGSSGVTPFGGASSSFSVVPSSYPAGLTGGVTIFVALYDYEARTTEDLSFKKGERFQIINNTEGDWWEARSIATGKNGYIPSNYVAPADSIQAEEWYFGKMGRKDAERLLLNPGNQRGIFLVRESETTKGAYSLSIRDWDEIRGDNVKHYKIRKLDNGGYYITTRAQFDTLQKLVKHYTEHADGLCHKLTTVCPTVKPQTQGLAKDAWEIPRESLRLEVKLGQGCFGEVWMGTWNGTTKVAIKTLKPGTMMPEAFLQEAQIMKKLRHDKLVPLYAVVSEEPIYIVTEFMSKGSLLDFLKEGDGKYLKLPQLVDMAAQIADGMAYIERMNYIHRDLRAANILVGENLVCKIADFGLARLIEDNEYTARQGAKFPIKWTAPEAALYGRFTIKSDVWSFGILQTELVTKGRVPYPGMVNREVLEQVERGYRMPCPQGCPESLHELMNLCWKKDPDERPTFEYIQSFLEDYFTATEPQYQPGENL

[3] = target: T2, Serine/threonine-protein kinase Sgk3 (Homo sapiens) (UniProt Q96BR1); experiment: Residual activity of SGK3 at 10 uM by microplate scintillation counting
T2 sequence (whole entry): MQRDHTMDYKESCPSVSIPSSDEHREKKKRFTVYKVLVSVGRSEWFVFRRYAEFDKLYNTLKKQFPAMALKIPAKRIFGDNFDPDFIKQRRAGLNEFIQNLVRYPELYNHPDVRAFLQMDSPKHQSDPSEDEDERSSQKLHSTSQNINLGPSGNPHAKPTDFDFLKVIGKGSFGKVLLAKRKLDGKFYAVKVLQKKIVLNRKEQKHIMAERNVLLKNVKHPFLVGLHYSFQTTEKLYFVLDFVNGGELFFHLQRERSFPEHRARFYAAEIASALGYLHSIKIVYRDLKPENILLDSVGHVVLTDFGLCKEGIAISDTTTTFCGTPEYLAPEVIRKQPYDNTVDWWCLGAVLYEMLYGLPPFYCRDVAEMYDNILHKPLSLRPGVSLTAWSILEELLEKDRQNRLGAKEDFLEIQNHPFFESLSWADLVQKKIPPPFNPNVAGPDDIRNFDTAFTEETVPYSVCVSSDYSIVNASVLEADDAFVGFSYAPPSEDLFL

[4] = target: T3, Tyrosine-protein kinase Tec (Homo sapiens) (UniProt P42680); experiment: Residual activity of TEC at 10 uM by microplate scintillation counting
T3 sequence (whole entry): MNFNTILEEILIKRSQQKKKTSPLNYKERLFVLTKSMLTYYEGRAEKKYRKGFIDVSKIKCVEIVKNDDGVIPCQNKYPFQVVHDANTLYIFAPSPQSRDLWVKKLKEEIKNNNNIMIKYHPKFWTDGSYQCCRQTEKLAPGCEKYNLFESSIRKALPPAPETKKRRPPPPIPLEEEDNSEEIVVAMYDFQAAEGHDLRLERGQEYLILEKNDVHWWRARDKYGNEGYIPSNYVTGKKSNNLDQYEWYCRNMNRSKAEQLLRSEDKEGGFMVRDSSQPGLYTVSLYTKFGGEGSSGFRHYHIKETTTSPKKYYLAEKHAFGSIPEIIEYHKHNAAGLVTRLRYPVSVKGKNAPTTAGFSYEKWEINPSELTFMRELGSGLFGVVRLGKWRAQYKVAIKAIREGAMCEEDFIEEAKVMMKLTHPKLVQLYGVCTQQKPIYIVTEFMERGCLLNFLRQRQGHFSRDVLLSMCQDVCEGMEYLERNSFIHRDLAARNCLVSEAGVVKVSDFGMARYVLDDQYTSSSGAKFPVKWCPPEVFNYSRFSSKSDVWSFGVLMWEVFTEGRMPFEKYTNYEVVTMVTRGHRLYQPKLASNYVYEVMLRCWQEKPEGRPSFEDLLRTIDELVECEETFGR

[5] = target: T4, Serine/threonine-protein kinase TAO2 (Homo sapiens) (UniProt Q9UL54); experiment: Residual activity of TAOK2 at 0.1 uM by microplate scintillation counting
T4 sequence (whole entry): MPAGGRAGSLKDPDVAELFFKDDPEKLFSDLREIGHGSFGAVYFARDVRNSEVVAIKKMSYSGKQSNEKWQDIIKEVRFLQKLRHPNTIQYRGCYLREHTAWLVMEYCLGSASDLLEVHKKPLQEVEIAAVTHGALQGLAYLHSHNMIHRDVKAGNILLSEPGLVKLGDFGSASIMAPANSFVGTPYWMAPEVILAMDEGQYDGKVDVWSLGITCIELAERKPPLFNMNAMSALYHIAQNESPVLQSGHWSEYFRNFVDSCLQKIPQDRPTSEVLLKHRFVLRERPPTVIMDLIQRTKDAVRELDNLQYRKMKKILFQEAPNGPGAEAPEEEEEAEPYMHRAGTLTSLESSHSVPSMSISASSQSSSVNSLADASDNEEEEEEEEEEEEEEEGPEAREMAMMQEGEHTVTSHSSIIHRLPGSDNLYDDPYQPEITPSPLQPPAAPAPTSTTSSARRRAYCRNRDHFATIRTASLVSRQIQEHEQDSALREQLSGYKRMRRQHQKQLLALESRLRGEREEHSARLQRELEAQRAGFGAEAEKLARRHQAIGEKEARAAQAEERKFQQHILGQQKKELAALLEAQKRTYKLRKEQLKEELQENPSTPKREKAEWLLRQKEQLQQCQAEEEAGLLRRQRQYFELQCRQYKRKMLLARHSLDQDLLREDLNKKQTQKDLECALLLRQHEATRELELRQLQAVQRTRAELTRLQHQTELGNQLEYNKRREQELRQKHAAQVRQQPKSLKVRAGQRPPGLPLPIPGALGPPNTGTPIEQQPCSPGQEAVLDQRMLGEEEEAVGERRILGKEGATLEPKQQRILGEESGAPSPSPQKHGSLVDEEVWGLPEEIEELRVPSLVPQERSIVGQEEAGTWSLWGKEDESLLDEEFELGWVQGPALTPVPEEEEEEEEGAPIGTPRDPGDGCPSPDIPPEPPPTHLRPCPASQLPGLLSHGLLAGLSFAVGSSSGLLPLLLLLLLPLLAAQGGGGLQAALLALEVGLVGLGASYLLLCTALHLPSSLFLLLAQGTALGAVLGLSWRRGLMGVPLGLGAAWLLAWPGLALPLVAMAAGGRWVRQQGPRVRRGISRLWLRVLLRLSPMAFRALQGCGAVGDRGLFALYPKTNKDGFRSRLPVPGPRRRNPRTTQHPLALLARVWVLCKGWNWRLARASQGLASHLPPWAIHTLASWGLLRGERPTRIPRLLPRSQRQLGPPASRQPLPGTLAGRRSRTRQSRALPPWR

Row | SMILES | residual activity [1] | residual activity [2] | residual activity [3] | residual activity [4] | residual activity [5]
1 | COc1cc2c(Oc3ccc(-c4nc5ccccc5s4)cc3F)ncnc2cc1OCCCN1CCN(C)CC1 | 102% | 80% | 97% | 25% | 108%
2 | COc1cc2c(Oc3ccc(-c4nc5ccccc5s4)cc3)ncnc2cc1OCCCN1CCCC1 | 103% | 98% | 98% | 45% | 102%
3 | COc1cc2c(Oc3ccc(-c4nc5ccccc5s4)cc3)ncnc2cc1OCCCN1CCN(C)CC1 | 116% | 93% | 112% | 61% | 92%
